Here are results for 4 compounds from ChEMBL document CHEMBL1201862, “PubChem BioAssay data set” (2004).

Some test systems named below: NCI-H460; NCI-H522; COLO 205; SF-268; CAKI-1; UO-31; HOP-92; OVCAR-4; TK-10; SK-MEL-2; DMS-114; OVCAR-5; ACHN; UACC-257; Malme-3M; SK-OV-3; T47D; NCI-H23; HCT-116; HL-60.
Assay in all cases: inhibition of tumour cell growth, NCI panel, 48 h

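Interpolation was linear, between the two tested concentrations surrounding the appropriate level; five concentrations were tested over 48 hours in 96-well plates. GI50: concentration for 50% inhibition of growth.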 Calls of active or inactive are those of the source. Rule as the data show it: active = GI50 up to about 1.1 µM and inactive = higher.

In the case of `O=C1c2nc3n(c2C(=O)c2c1nc1n2CCC1)CCC3`, the GI50 was 1.82 µM (inactive) in the test with NCI-H460; 6.44 µM (inactive) in the test on NCI-H522; 5.89 µM (inactive) in the test with COLO 205; 8.28 µM (inactive) in the test with SF-268; 9.35 µM (inactive) in the test with CAKI-1; 18.8 µM (inactive) with UO-31. In addition, the GI50 was 13.1 µM (inactive) in the test with HOP-92; 4.71 µM (inactive) in the test on OVCAR-4; 27.6 µM (inactive) in the test on TK-10; 3.66 µM (inactive) in the test on SK-MEL-2; 2.04 µM (inactive) in the test with DMS-114; 16.9 µM (inactive) with OVCAR-5. In addition, the GI50 with ACHN was 10.9 µM (inactive); in the test with UACC-257, 2.2 µM (inactive); with Malme-3M, 0.904 µM (active); with SK-OV-3, 23.7 µM (inactive); with T47D it was > 10 µM (inactive); in the test with NCI-H23, 2.49 µM (inactive). Further, in the test with HCT-116, the GI50 was 3.03 µM (inactive).

As to `CC12OOC(c3ccccc31)c1c2ccc2ccccc12` (stereo not drawn), the GI50 was 2.26 µM (inactive) in the test with NCI-H460; 0.843 µM (active) in the test with NCI-H522; 1.71 µM (inactive) in the test on COLO 205; 11.2 µM (inactive) in the test with SF-268; 0.641 µM (active) in the test with CAKI-1; 9.55 µM (inactive) with UO-31. Also, the GI50 was 0.334 µM (active) in the test on HL-60; 2.44 µM (inactive) in the test with HOP-92; 0.8 µM (active) in the test with OVCAR-4; 9.68 µM (inactive) in the test on TK-10; 12.1 µM (inactive) in the test on SK-MEL-2; 0.885 µM (active) in the test on DMS-114. Moreover, the GI50 with OVCAR-5 was 19.5 µM (inactive); in the test on ACHN it was 1.73 µM (inactive); in the test on UACC-257 it was 13.4 µM (inactive); in the test with Malme-3M, 2.3 µM (inactive); in the test with SK-OV-3 it was 20 µM (inactive); in the test with T47D, 1.82 µM (inactive). Moreover, the GI50 with NCI-H23 is 11.4 µM (inactive); with HCT-116, 1.73 µM (inactive).

Regarding `CCOC(=O)C(N)CSC(=O)NC` (stereo not drawn), the GI50 was 92 µM (inactive) with NCI-H460; 102 µM (inactive) in the test with NCI-H522; 78.5 µM (inactive) with COLO 205; 115 µM (inactive) with SF-268; 104 µM (inactive) in the test on CAKI-1; 259 µM (inactive) in the test with UO-31. The GI50 was 74 µM (inactive) in the test on HL-60; 98.4 µM (inactive) with HOP-92; 219 µM (inactive) with OVCAR-4; 247 µM (inactive) in the test with TK-10; 63.2 µM (inactive) in the test with SK-MEL-2; 51.3 µM (inactive) in the test on DMS-114. Besides, the GI50 was 350 µM (inactive) with OVCAR-5; 184 µM (inactive) in the test with ACHN; 208 µM (inactive) in the test with UACC-257; 117 µM (inactive) in the test on Malme-3M; 286 µM (inactive) with SK-OV-3; 133 µM (inactive) in the test on T47D. In addition, the GI50 in the test with NCI-H23 was 112 µM (inactive); in the test with HCT-116 it was > 89.7 µM (inactive).

Turning to `N#C/C(=C\c1cccc(O)c1O)C(N)=O`, the GI50 in the test with NCI-H460 is 29.4 µM (inactive); in the test with NCI-H522, 21 µM (inactive); in the test on COLO 205 it was 21.5 µM (inactive); with SF-268, 37.9 µM (inactive); in the test on CAKI-1 it was 41.3 µM (inactive); in the test on UO-31 it was 22.7 µM (inactive). Besides, the GI50 in the test with HL-60 was 15.5 µM (inactive); with HOP-92, 41.3 µM (inactive); in the test on OVCAR-4, 62.4 µM (inactive); with TK-10, 42.1 µM (inactive); in the test on SK-MEL-2, 38.4 µM (inactive); with DMS-114 it was 29.9 µM (inactive). For the same compound, the GI50 in the test with OVCAR-5 was > 100 µM (inactive); in the test with ACHN, 26.6 µM (inactive); in the test with UACC-257 it was 39.5 µM (inactive); in the test on Malme-3M, 46.8 µM (inactive); with SK-OV-3, 28.8 µM (inactive); with NCI-H23, 34.8 µM (inactive). Also, the GI50 in the test with HCT-116 is 34.5 µM (inactive).
